Where “and” joins values, the source holds several entries; their conditions need not be identical. Equal values may be shown once.
Assays:
[1] = test system: acute promyelocytic leukemia HL-60 cell line; experiment: Cell viability (MTT) assay on HL-60; format: cell-based; conditions: Homo sapiens; for IC50: HL-60, 48 h
Description: (§1) In this assay, culture media was prepared by adding fetal bovine serum (10%), L-glutamine (5 mM), penicillin (100 IU/mL), and streptomycin (100 µg/mL) to IMDM (Sigma-Aldrich, St. Louis, MO, USA). The cells (5 × 10^3 cells/well) were seeded into a 96-well plate filled with 100 µL of culture media and placed in a CO2 incubator at 37 °C. After 24 h, the cells were treated with MA, MB, and MAB with different concentrations (0.5, 1, 5, and 10 µM) for 48 h. Subsequently, 10 µL of the MTT solution (5 mg/mL, Sigma-Aldrich) was pipetted into each well. The cells were continuously incubated for 4 h. Finally, 100 µL of cell lysis buffer (10% SDS in 0.01 M HCl) was applied to dissolve the colored formazan crystals. Culture media instead of momilactones was used as the negative control. Meanwhile the drugs consisting of doxorubicin, all-trans retinoic acid (ATRA), the mixture of ATRA and arsenic trioxide (ATRA/ATO) (1:1, w/w), and bortezomib were tested as the standard inhibitors. The absorbance at 595 nm was scanned to determine the cell growth rate using a spectrophotometer (SpectraMAX M5, Molecular Devices, Sunnyvale, CA, USA). All tests were performed with three replications. The cytotoxic activity (% inhibition) of momilactones and/or inhibitors on the tested cell lines was as follows:Inhibition (%) = (ANC − AS)/ANC × 100(1) where ANC: absorbance of reaction with negative control, and AS: absorbance of reaction with momilactone and/or inhibitor.
(§2) Dose-responding curves and IC50 values (the required concentration for inhibiting 50% of cell viability) of momilactones and the standard inhibitors for cytotoxicity against tested cell lines were established. A lower IC50 indicates a stronger cytotoxic activity.

[2] = test system: multiple myeloma U266 cell line; experiment: Cell viability (MTT) assay on U266; format: cell-based; conditions: Homo sapiens; for IC50: U-266, U266, 48 h
Description: as §1, §2

[3] = test system: non-cancerous MeT-5A cell line; experiment: Cell viability (MTT) assay on MeT-5A; format: cell-based; conditions: Homo sapiens, 48 h
Description: as §1, §2

[4] = test system: acute promyelocytic leukemia HL-60 cell line; experiment: Cell apoptosis (annexin V) assay on HL-60; format: cell-based, human; conditions: HL-60, 5 µM
Description: (§3) The procedure was conducted in triplicate following Lam et al.. In brief, the cells (5 × 10^5 cells/well) were seeded into a 6-well plate filled with 1.5 mL of culture media and cultured in a CO2 incubator for 24 h with the same condition as mentioned in the MTT assay. The cells were then treated with momilactones at a concentration of 5 µM for 24 and 48 h. The non-treated cells were used as a control. Harvested cells were washed twice with cold phosphate-buffered saline (PBS). After that, the control and treated cells were incubated with annexin V-conjugated fluorescein isothiocyanate (FITC) (Biolegend, San Diego, CA, USA) and propidium iodide (PI) for 15 min at 25 °C. The obtained cells were dissolved in 450 µL of PBS. The solution was filtered by a nylon membrane to prevent cell clumping and kept on ice until analysis. The intensities of annexin V-FITC and PI and the percentages of apoptotic cells were instantly determined by a flow cytometer (BD, Franklin Lakes, NJ, USA).

[5] = test system: BCL-2; experiment: Western blotting in U266: BCL-2; format: cell-based, human; conditions: U266, 5 µM
Description: (§4) The cells (5 × 10^5 cells/well) were cultured and treated in triplicate following the same methods as the apoptosis and cell cycle assays. The cell lysates were conducted by rinsing cells with PBS, followed by adding 2× loading buffer two times (4% SDS, 10% 2-mercaptoethanol, 20% glycerol, 0.004% bromophenol blue, 0.125 M Tris-HCl, pH 6.8). The extracted protein ([…]) was subjected to sodium dodecyl sulfate (SDS)-polyacrylamide gels, applying 10% acrylamide, and subsequently transferred to a polyvinylidene fluoride membrane (Takara Bio, Shiga, Japan) by electroblotting. The membrane was blocked using 3% skim milk in PBS-0.05% Tween 20 (PBS-T) at 25 °C for 1 h. The incubation with each antibody (2 µg/mL) against anti-rabbit total p-38/MAPK, phosphorylated p-38/MAPK, BCL-2, procaspase-3, cleaved caspase-3, CDK1/cdc2, cyclin B1, and GAPDH (BioLegend, San Diego, CA, USA) in blocking buffer was conducted overnight at 4 °C. The following step was performed by washing the membrane with PBS-T in triplicate. The collected membrane was incubated with a secondary antibody of horseradish peroxidase-labeled goat anti-rabbit IgG (20 ng/mL) (IBL, Gunma, Japan) at 37 °C for 1 h. […] The relative expression (RE) was calculated by normalizing the intensity of targeted proteins to the intensity of the housekeeping protein GAPDH.

[6] = test system: acute promyelocytic leukemia HL-60 cell line; experiment: Cell cycle assay (PI, flow cytometry) on HL-60; format: cell-based, human; conditions: HL-60, 5 µM
Description: (§5) The cells (5 × 10^5 cells/well) were cultured and treated in triplicate following the same methods as the apoptosis assay. The FxCycle PI/RNase staining solution was applied according to the manufacturer’s instructions (Calbiochem, Darmstadt, Germany). The cell cycle distribution at each phase of G1, S, and G2 was determined based on the cell’s DNA content. The percentages of cells in different phases of the cell cycle were quantified by a flow cytometer (BD, Franklin Lakes, NJ, USA). In brief, the collected cells were washed with ice-cold PBS. Subsequently, ice-cold PBS in pure ethanol was added to disperse the cells. The obtained solution was stored at 4 °C for 24 h for fixing. For analysis, the cells were incubated with 10 mg/mL of RNase A (Sigma-Aldrich) for 5 min on ice. The following step was conducted by adding 1 mg/mL of PI (in PBS). After incubating for 10 min at room temperature, the cells were dissolved in 450 µL of PBS. The solution was then filtered using a nylon membrane to remove cell clumping before analysis. Subsequently, the flow cytometric measurement was immediately performed.

[7] = test system: phosphorylated p-38/total p-38; experiment: Western blotting in HL-60: phosphorylated p-38/total p-38; format: cell-based, human; conditions: HL-60, 5 µM, control 0.48
Description: as §4

[8] = test system: cyclin B1; experiment: Western blotting in HL-60: cyclin B1; format: cell-based, human; conditions: HL-60, 5 µM, control 1.17
Description: as §4

[9] = test system: phosphorylated p-38/total p-38; experiment: Western blotting in U266: phosphorylated p-38/total p-38; format: cell-based, human; conditions: U266, 5 µM, control 1.00
Description: as §4

[10] = test system: non-cancerous MeT-5A cell line; experiment: Cell cycle assay (PI, flow cytometry) on MeT-5A; format: cell-based, human; conditions: 5 µM, 48 h
Description: as §5

[11] = test system: multiple myeloma U266 cell line; experiment: Cell apoptosis (annexin V) assay on U266; format: cell-based, human; conditions: U266, 5 µM
Description: as §3

[12] = test system: cleaved caspase-3/procaspase-3; experiment: Western blotting in HL-60: cleaved caspase-3/procaspase-3; format: cell-based, human; conditions: HL-60, 5 µM, control 0.17
Description: as §4

[13] = test system: non-cancerous MeT-5A cell line; experiment: Cell apoptosis (annexin V) assay on MeT-5A; format: cell-based, human; conditions: 5 µM
Description: as §3

[14] = test system: CDK1; experiment: Western blotting in HL-60: CDK1; format: cell-based, human; conditions: HL-60, 5 µM, control 1.55
Description: as §4

[15] = test system: cleaved caspase-3/procaspase-3; experiment: Western blotting in U266: cleaved caspase-3/procaspase-3; format: cell-based, human; conditions: U266, 5 µM
Description: as §4

[16] = test system: BCL-2; experiment: Western blotting in HL-60: BCL-2; format: cell-based, human; conditions: HL-60, 5 µM
Description: as §4

Compound: CC1=C(/C=C/C(C)=C/C=C/C(C)=C/C(=O)O)C(C)(C)CCC1 [ATRA, all-trans retinoic acid, reference compound]
- IC50 [1]: 3.99 ± 0.16 µM

Compound: COc1cccc2c1C(=O)c1c(O)c3c(c(O)c1C2=O)C[C@@](O)(C(=O)CO)C[C@@H]3O[C@H]1C[C@H](N)[C@H](O)[C@H](C)O1 [Doxorubicin, doxorubicin, reference compound]
- IC50 [2]: 0.24 ± 0.01 µM
- IC50 [1]: 5.22 ± 0.15 µM
- inhibition at 10 µM [3]: 49.2 ± 6.17%

Compound: C=C[C@]1(C)CC[C@@H]2C(=C[C@H]3OC(=O)[C@@]4(C)C(=O)CC[C@@]2(C)[C@@H]34)C1 [MA, momilactone A]
- inhibition at 10 µM ([2]; U-266, U266, 10 µM, 48 h, read-out: U266 inhibition percentage at 10 µM): 41%
- inhibition at 10 µM ([1]; HL-60, 10 µM, 48 h, read-out: HL-60 inhibition percentage at 10 µM): 30.2%
- inhibition at 10 µM [3]: 28.5 ± 2.93%

Compound: C=C[C@]1(C)CC[C@@H]2C(=C[C@H]3OC(=O)[C@]4(C)[C@H]3[C@]23CC[C@]4(O)OC3)C1 [MB, momilactone B]
- % apoptosis (FITC+) ([4]; 24 h): 1.1%
- FITC- cells ([4]; 24 h): 98.9%
- increase in apoptotic process over the control ([4]; 24 h): 1.30 fold
- % apoptosis (FITC+) ([4]; 48 h): 40.5%
- FITC- cells ([4]; 48 h): 59.5%
- inhibition of BCL-2 expression compared to the control ([5]; 24 h): 2.37 times
- decrease of BCL-2 expression over the control ([5]; 48 h): 4.41 fold
- cells in G2 phase ([6]; 24 h): 30.1%
- cells in G2 phase ([6]; 48 h): 29.2%
- IC50 [2]: 5.09 ± 0.58 µM
- relative expression (RE) of phosphorylated p-38/total p-38 ([7]; 24 h): 1.15
- relative expression (RE) of phosphorylated p-38/total p-38 ([7]; 48 h): 0.96
- RE of cyclin B1 ([8]; 24 h): 0.80
- RE of cyclin B1 ([8]; 48 h): 0.69
- RE of phosphorylated p-38/total p-38 ([9]; 24 h): 2.47
- RE of phosphorylated p-38/total p-38 ([9]; 48 h): 2.35
- increase of cell percentage of sub-G1 compared to the untreated control [10]: 2.59 times
- IC50 [1]: 4.49 ± 0.34 µM
- % apoptosis (FITC+) ([11]; 24 h): 16.9%
- FITC- cells ([11]; 24 h): 83.1%
- % apoptosis (FITC+) ([11]; 48 h): 18.0%
- FITC- cells ([11]; 48 h): 82.0%
- inhibition at 10 µM [3]: 38 ± 2.29%
- RE of cleaved caspase-3/procaspase-3 ([12]; 24 h): 0.56
- RE of cleaved caspase-3/procaspase-3 ([12]; 48 h): 0.77
- % apoptosis (FITC+) ([13]; 24 h): 2.9% and 2.87%
- FITC- cells ([13]; 24 h): 97.1%
- % apoptosis (FITC+) ([13]; 48 h): 10.3%
- FITC- cells ([13]; 48 h): 89.7%
- increase in cell apoptosis compared to the non-treated control ([13]; 48 h): 2.67 fold
- RE of CDK1 ([14]; 24 h): 1.10
- RE of CDK1 ([14]; 48 h): 0.75
- increase of cleaved caspase-3/procaspase-3 expression over the control ([15]; 24 h): 5.33 times
- increase of cleaved caspase-3/procaspase-3 expression over the control ([15]; 48 h): 8.83 times
- BCL-2 RE value, fold lower than the control ([16]; 24 h): 1.92 fold
- BCL-2 RE value, fold lower than the control ([16]; 48 h): 2.32 fold

Compound: CC(C)C[C@H](NC(=O)[C@H](Cc1ccccc1)NC(=O)c1cnccn1)B(O)O [bortezomib, reference compound]
- IC50 [2]: 0.008 µM

— paper PMC9564300, “Cytotoxic Mechanism of Momilactones A and B against Acute Promyelocytic Leukemia and Multiple Myeloma Cell Lines” (Cancers, 2022)
